Reference: patent US7505101B2, “Liquid crystal display” (Fujifilm Corporation, priority 2004, dated 2009)

Experiment: octanol-water partition coefficient (Log P value)
Assay type: physicochemical
Conditions: octanol-water distribution coefficient
From the text: In the preparation of the cellulose acylate film according to the invention, among the aforementioned compound for suppressing an alignment of cellulose acylate in the film along the in-plane direction and the direction of film thickness thereby sufficiently reducing Rth, preferred is a compound having an octanol-water distribution coefficient (log P value) within a range of from 0 to 7. […] Also, a compound having a log P value or 0 or more has a lower hydrophilicity and thus can suppress deterioration of the water resistance of the cellulose acylate film. The log P value is more preferably within a range of from 1 to 6, and particularly preferably 1.5 to 5. The octanol-water distribution coefficient (log P value) can be measured by a flask […] method described in Japan Industrial Standards (JIS) Z7260-107 (2000). The octanol-water distribution coefficient (log P value) may also be estimated, instead of an actual measurement, by a calculational chemical method or an empirical method. […]

logP | SMILES
2.9 | Cc1ccc(S(=O)(=O)Nc2ccccc2)cc1 [A-19]
5.6 | CCCCCCCCOc1ccc(C(=O)c2ccccc2)c(O)c1 [UV-102]
